The values below come from PubChem BioAssay (NCI).

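Where inhibition never reached the appropriate level, the endpoint shown equals the highest concentration tested. Otherwise, values were interpolated linearly from a five-concentration, 48-hour dose response in 96-well plates. TGI denotes the concentration required for complete inhibition of growth.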

Test systems include HCC-2998 colon; HCT-116 colon; HOP-92 NSCLC; LOX IMVI melanoma; OVCAR-8 ovarian; SF-295 CNS; SF-539 CNS; SK-MEL-2 melanoma; SK-MEL-5 melanoma; SK-OV-3 ovarian; SN12C renal; U251 CNS; CAKI-1 renal; MDA-MB-435; SF-268 CNS; RPMI-8226 leukemia; MCF7 breast.
Holding throughout (experiment): NCI anticancer screen, dose series, 48 h

On to `[Cl-].[Rh+3].c1cnc2c(c1)ccc1cccnc12.c1cnc2c(c1)ccc1cccnc12.c1cnc2c(c1)ccc1cccnc12`, for which the TGI in the assay with HCC-2998 colon, with HCT-116 colon, with HOP-92 NSCLC, in the assay on LOX IMVI melanoma, in the assay with OVCAR-8 ovarian and in the assay on SF-295 CNS was > 100 µM in each case. Besides, the TGI in the assay with SF-539 CNS, in the assay on SK-MEL-2 melanoma, in the assay with SK-MEL-5 melanoma, with SK-OV-3 ovarian, in the assay on SN12C renal and with U251 CNS was > 100 µM each time.
`CC(CCC(=O)O)(c1ccc(O)cc1)c1ccc(O)cc1`: the TGI in the assay with CAKI-1 renal, in the assay with HCT-116 colon, with HOP-92 NSCLC, in the assay on LOX IMVI melanoma, in the assay with MDA-MB-435 and in the assay on OVCAR-8 ovarian was > 100 µM in each case. For the same molecule, the TGI in the assay on SF-268 CNS, in the assay with SF-295 CNS, in the assay with SK-MEL-2 melanoma, in the assay on SK-MEL-5 melanoma, in the assay with SN12C renal and in the assay on U251 CNS was > 100 µM in each case.
As to `O/N=C/c1ncccc1C1OCCO1`, the TGI with CAKI-1 renal, in the assay on HCT-116 colon, in the assay with HOP-92 NSCLC, in the assay on LOX IMVI melanoma, with OVCAR-8 ovarian and with SF-268 CNS was > 100 µM each time. In addition, the TGI in the assay on SF-295 CNS, in the assay on SF-539 CNS, in the assay with SK-MEL-2 melanoma, with SK-MEL-5 melanoma, in the assay with SK-OV-3 ovarian and in the assay on SN12C renal was > 100 µM throughout. Further, in the assay on U251 CNS, the TGI was > 100 µM.
Take `O=C1CSSCC(=O)Nc2ccccc2N1`: the TGI in the assay on CAKI-1 renal, in the assay with HCT-116 colon, in the assay with HOP-92 NSCLC, in the assay on LOX IMVI melanoma, with MDA-MB-435 and with OVCAR-8 ovarian was > 100 µM throughout. Moreover, the TGI in the assay on RPMI-8226 leukemia, in the assay with SF-268 CNS, in the assay with SF-295 CNS, in the assay with SF-539 CNS, with SK-MEL-2 melanoma and in the assay on SK-MEL-5 melanoma was > 100 µM in each case. Moreover, the TGI with SK-OV-3 ovarian, with SN12C renal and with U251 CNS was > 100 µM throughout.
Take `O=S(=O)(O)C1=C2Sc3ccccc3N=C2c2ccccc2C1`: the TGI came out at 34.7 µM with CAKI-1 renal; 31.4 µM in the assay on HCC-2998 colon; 28.5 µM in the assay with HCT-116 colon; 22 µM with HOP-92 NSCLC; 25.5 µM with LOX IMVI melanoma; 31.5 µM with OVCAR-8 ovarian. Besides, the TGI was 38.6 µM in the assay on RPMI-8226 leukemia; 27.5 µM in the assay with SF-268 CNS; 26.7 µM with SF-295 CNS; 24.4 µM in the assay on SF-539 CNS; 35.7 µM in the assay with SK-MEL-2 melanoma; 26.4 µM in the assay on SK-MEL-5 melanoma. Moreover, the TGI turned out to be 44.1 µM with SK-OV-3 ovarian, 26.8 µM with SN12C renal and 25.4 µM in the assay with U251 CNS.
As for `Cc1cccc(C(C)C)c1NC(=O)/C(Cc1c([N+](=O)[O-])cccc1[N+](=O)[O-])=N/NC(=O)CC#N`, the TGI in the assay on CAKI-1 renal, with HCC-2998 colon, in the assay on HCT-116 colon, in the assay with HOP-92 NSCLC, in the assay with LOX IMVI melanoma and with SF-268 CNS was > 100 µM in each case. The TGI in the assay on SF-295 CNS, in the assay with SF-539 CNS, with SK-MEL-2 melanoma, in the assay with SK-MEL-5 melanoma and in the assay on SK-OV-3 ovarian was > 100 µM throughout.
Take `NC(=S)N1N=C2c3ccccc3CC[C@@H]2[C@@H]1c1ccccc1`: the TGI in the assay on CAKI-1 renal was 42.2 µM; in the assay with HCC-2998 colon it was > 55.7 µM; with HCT-116 colon, 19.1 µM; with HOP-92 NSCLC, 47.2 µM; in the assay with LOX IMVI melanoma it was 20.1 µM; in the assay with OVCAR-8 ovarian, 72.3 µM. The TGI with RPMI-8226 leukemia was 32.9 µM; with SF-268 CNS, 49.5 µM; in the assay with SF-295 CNS, > 42.2 µM; in the assay with SF-539 CNS it was 22.3 µM; with SK-MEL-2 melanoma, > 48.5 µM; with SK-MEL-5 melanoma it was 27.1 µM. In addition, the TGI in the assay with SK-OV-3 ovarian was determined as 33.9 µM; in the assay on SN12C renal, 17.3 µM; with U251 CNS, 21.6 µM.
Turning to `CN(C)/N=C(/CC(O)(C(F)(F)F)C(F)(F)F)c1ccc([N+](=O)[O-])cc1`, the TGI in the assay on CAKI-1 renal, in the assay with HCC-2998 colon, with HCT-116 colon, in the assay with HOP-92 NSCLC, in the assay with LOX IMVI melanoma and in the assay with MDA-MB-435 was > 100 µM in each case. In addition, the TGI with OVCAR-8 ovarian, in the assay with RPMI-8226 leukemia, with SF-268 CNS, with SF-295 CNS, in the assay on SF-539 CNS and with SK-MEL-2 melanoma was > 100 µM throughout. In addition, the TGI in the assay on SK-MEL-5 melanoma, in the assay with SK-OV-3 ovarian, with SN12C renal and in the assay with U251 CNS was > 100 µM in each case.
Take `CCC(C)(C)C1CCC2c3c([nH]c4ccccc34)C3C(=O)N(c4ccc(OC)cc4)C(=O)C3C2C1` (configuration not stated): the TGI with CAKI-1 renal was determined as 22.7 µM; in the assay with HCC-2998 colon, 40.5 µM; with HCT-116 colon, 37.2 µM; in the assay with LOX IMVI melanoma, 23.7 µM; in the assay on MCF7 breast, 22.6 µM; with MDA-MB-435, 43.5 µM. The TGI in the assay on OVCAR-8 ovarian was 30.4 µM; with SF-268 CNS, 43.6 µM; in the assay on SF-295 CNS, 64.2 µM; with SF-539 CNS it was 33.5 µM; with SK-MEL-2 melanoma, 40.3 µM; in the assay on SK-OV-3 ovarian it was 77.6 µM. In addition, the TGI is 6.67 µM with SN12C renal and 54.8 µM in the assay with U251 CNS.
Consider `O=C1N[C@H]2c3c(Cl)sc(Cl)c3[C@@H](O)[C@H]2O1`, for which the TGI with CAKI-1 renal, in the assay on HCC-2998 colon, in the assay on HCT-116 colon, in the assay on MCF7 breast, with MDA-MB-435 and with OVCAR-8 ovarian was > 100 µM throughout. Moreover, the TGI in the assay with RPMI-8226 leukemia, in the assay with SF-268 CNS, in the assay on SF-539 CNS, with SK-MEL-2 melanoma, in the assay with SK-MEL-5 melanoma and with SK-OV-3 ovarian was > 100 µM throughout. In addition, the TGI with SN12C renal and in the assay with U251 CNS was > 100 µM in each case.
